Reference: patent US20260152533A1, “COMBINATION INHIBITORS FOR TREATING FIBROSIS” (Memorial Sloan-Kettering Cancer Center, priority 2021, published 2026)

Assays:
Format in all cases: cell-based, mouse
NIH-3T3 cells [1] = assay: Growth experiments, NIH-3T3 cells; settings: for rescue of TGFβ-induced growth defect: TGFβ, 0.2, 1 or 5 mM metabolite
Description: NIH-3T3 cells were obtained from ATCC (CRL-1658); 293 T cells were obtained from ATCC (CRL-3216). PSCs were isolated from C57BL/6 mice by differential centrifugation as previously described^49 and their mesenchymal origin was validated by analyzing the expression of various mesenchymal and epithelial markers. MFBs were isolated from FVB/N mice by differential centrifugation as previously described^50. DB7 mouse breast cancer cells were obtained from Alexander Borowsky (University of California Davis Comprehensive Cancer Center, Sacramento, CA, USA) through an MTA to Ohio State University (OSU). KPC (Kras^LSL-G12D; Trp53^LSL-R172H; Pdx1-Cre) mouse PDAC cells were a gift from Scott Lowe (Memorial Sloan Kettering Cancer Center. (MSKCC)). All cells were cultured at 37° C. in 5% carbon dioxide (CO2) and 20% oxygen (O2) and were maintained in Dulbecco's Modified Eagles medium (DMEM) (25 mM D-glucose, 2 mM L-glutamine) supplemented with 10% fetal bovine serum (FBS) (Gemini), 100 units/ml penicillin and 100 μg/ml streptomycin. Primary PSC and MFB cells were kept in culture for no more than ten passages. Experiments with iCAFs and myCAFs were performed as previously described^29. In brief, qPSCs were generated by culturing PSCs in a dome of GFR Matrigel (Corning) in DMEM; iCAFs were generated by culturing PSCs in a dome of GFR Matrigel in DMEM conditioned by KPC cells for 48 h; myCAFs were generated by monolayer culture of PSCs. Differentiation was validated by analyzing the expression of iCAF/myCAF markers^29. For experiments with different glutamine concentrations, cells were seeded in regular DMEM and the medium was changed 5-6 hours later or the following day to glucose and glutamine-free DMEM supplemented with 10% dialyzed FBS (Gemini) and 20 mM D-glucose, 2 mM L-glutamine (100%), 0.4 mM L-glutamine (20%) or 0.2 mM L-glutamine (10%). All media were prepared by the Media Preparation Facility at MSKCC. Cells were verified as mycoplasma-free by the MycoAlert Mycoplasma Detection Kit (Lonza).
A total of 0.2×10^5 cells/well were plated in 24-well culture plates and media was changed and treatments started 5-6 hours later. Cell numbers at the start of treatment (day 0 “d 0”) and 1, 2 and 3 days later were counted using the Multisizer 4e (Beckman) and normalized to the cell number at d 0. In co-culture assays, a fraction of the cell population was analyzed by flow cytometry for GFP expression, and the rest counted with the Multisizer 4e. The number of KPC-GFP cells was determined by multiplying the fraction of GFP+ cells with the total number of cells.

NIH-3T3 cells [2] = assay: Quantification of gene expression (qPCR), fibroblasts; settings: for Col1a1 mRNA expression: PC-deleted cells, 10% Gln, 48 hours (FIG. 5D, FIG. 11N)
Procedure: Total RNA was isolated from fibroblasts with Trizol (Life Technologies) according to the manufacturer's instructions, and […] RNA was used for cDNA synthesis using iScript (Bio-Rad). Real-time qPCR analysis was performed in technical triplicates using 1:40 diluted cDNAs and 0.1 μM forward and reverse primers together with Power SYBR Green (Life Technologies) in a QuantStudio 7 Flex (Applied Biosystems). Gene expression was quantified in Microsoft Excel 365 as relative expression ratio using primer efficiencies calculated by a relative standard curve. The geometric mean of the endogenous control genes 18 s, Actb and Rplp0 was used as reference sample.

NIH-3T3 cells [3] = assay: Relative metabolite abundance (GC-MS), NIH-3T3 cells; settings: for TGFβ-induced depletion of TCA cycle intermediates and NEAAs: 10% Gln, metabolite 5 mM, 48 hours (FIG. 8I)
Procedure: Cells were plated in six-well cell culture plates at a concentration aimed to reach 0.5-1×10^6 cells at the time of harvest. For quantification of relative metabolite abundance, cells were cultured with glutamine-free DMEM containing different concentrations of L-glutamine and supplemented with 10% dialyzed FBS and in some experiments were treated with TGFβ for 48 hours. For the [U-^13C]and [3,4-^13C]glucose tracing experiments, cells were cultured as above, and in the last 8 hours media was replaced with DMEM without D-glucose and L-glutamine supplemented with 2 mM or 0.2 mM L-glutamine and 10 mM [U-^13C]or [3,4-^13C]D-glucose (Cambridge Isotope Laboratories) and 10% dialyzed FBS. […] For relative quantification of metabolites by gas chromatography-mass spectroscopy (GC-MS), cells were washed briefly with PBS, which was then fully aspirated and metabolism was quenched by immediately adding 1 mL of 80:20 methanol:water stored at −80° C. containing 20 μM deuterated 2-hydroxyglutarate (d5-2HG) as an internal standard. […]
GC-MS measurements were performed as described before^11. Ions used for quantification of metabolite levels were as follows: d5-2HG m/z 354; citrate m/z 465; alpha-ketoglutarate m/z 304; succinate m/z 247; fumarate m/z 245; malate m/z 335; aspartate m/z 232; hydroxyproline m/z 332; proline m/z 216; glutamate m/z 246; glutamine m/z 245; lactate m/z 219; pyruvate m/z 174. […] For relative quantification of cell samples, integrated peak areas were normalized to the internal standard d5-2HG and to the packed cell volume of each sample. Absolute quantification of hydroxyproline in tumor acid hydrolysates was performed against a standard curve of commercial trans-4-hydroxy-L-proline (Sigma). […]

Row | Compound | rescue of TGFβ-induced growth defect (NIH-3T3 cells [1]; 10% Gln, 3 days) | Col1a1 mRNA expression (NIH-3T3 cells [2]) | TGFβ-induced depletion of TCA cycle intermediates and NEAAs (NIH-3T3 cells [3]) | cell proliferation (NIH-3T3 cells [1]; 10% Gln, TGFβ) | cell proliferation (NIH-3T3 cells [1]; 100% and 50% Gln, TGFβ 2 ng/mL, 3 days) | PC transcript levels (NIH-3T3 cells [2]; all fibroblast types analysed, 100% Gln, TGFβ 24 hours) | free levels of most TCA cycle intermediates (NIH-3T3 cells [3]; low Gln (10%), TGFβ, 48 hours (FIG. 1H))
1 | COC(=O)CC[C@H](N)C(=O)OC [dm-Glu, L-glutamic acid dimethylester] | sufficient to restore | rescued | rescued | – | – | – | –
2 | COC(=O)CCC(=O)C(=O)OC [dm-αKG, dimethyl alpha-ketoglutarate] | able to rescue | rescued | rescued | – | – | – | –
3 | TGFβ: transforming growth-factor beta; TGFβ-1 purchased from Peprotech | – | – | – | ceased to proliferate | did not change | reduced | substantially reduced
